Results: patent US3978045A, “N^2 -dansyl-L-arginine derivatives, and the pharmaceutically acceptable acid addition salts thereof” (priority 1973, dated 1976)
Non-standard residues stand in square brackets, D forms with d. Residues, ends and D or L forms follow the SMILES beside them. ξ: configuration not given here. *: point of attachment. Dansyl = CN(C)c1cccc2c(S(=O)(=O)*)cccc12; ξP = O=C(O)C1CCCN1

Columns and labels:
[1] = Acute toxicity (LD50) by oral administration in mice; conditions: mouse, in vivo, per kilogram of body weight
thrombin = target: T1, thrombin (Bos taurus, UniProt P00735); assay: Fibrinogen coagulation time (thrombin-induced clotting of fibrinogen); assay type: biochemical; conditions: bovine fibrinogen, borate saline buffer pH 7.4, thrombin 0.1 ml of 5 units/ml, 25°C; control coagulation time 50-55 seconds; read-out: Concentration required to prolong the coagulation time by a factor of 2
T1 construct: mature alpha-thrombin (light plus heavy chain) cut from prothrombin
Procedure: The antithrombotic activities of the N^2 -dansyl-L-arginine derivatives of this invention were compared with those of a known antithrombotic agent, (N^2 -(p-tolylsulfonyl)-L-arginine methyl ester). by determining the fibrinogen coagulation time. The measurement of the fibrinogen coagulation time was conducted as follows:
Immediately after mixing, the reaction mixture was transferred from the ice bath to a bath thermostated at 25°C. Coagulation times were taken as the period between the time of transference to the 25°C bath and the time of the first appearance of fibrin threads.
The term "concentration required to prolong the coagulation time by a factor of two" is the concentration of an active ingredient required to prolong the normal coagulation time 50-55 seconds to 100-110 seconds.

With `CN(C)c1cccc2c(S(=O)(=O)N[C@@H](CCCNC(=N)N)C(=O)N3Cc4ccccc4C3)cccc12` [2-(N^2-dansyl-L-arginyl)isoindoline] as the compound, how does the LD50 [1] read?
Its LD50 is 1360 mg/kg.

Which LD50 [1] does the source give for `CCC1CCN(C(=O)[C@H](CCCNC(=N)N)NS(=O)(=O)c2cccc3c(N(C)C)cccc23)CC1` [4-ethyl-1-(N^2-dansyl-L-arginyl)piperidine] here?
Its LD50 is 1380 mg/kg.

For `CC1CCN(C(=O)[C@H](CCCNC(=N)N)NS(=O)(=O)c2cccc3c(N(C)C)cccc23)CC1` [4-methyl-1-(N^2-dansyl-L-arginyl)piperidine], which LD50 [1] is on record?
Its LD50 is 1310 mg/kg.

For `CCCCOC(=O)[C@H](CCCNC(=N)N)NS(=O)(=O)c1cccc2c(N(C)C)cccc12` [N^2 -dansyl-L-arginine n-butyl ester], which LD50 [1] is on record?
The LD50 was > 6000 mg/kg.

For `CN(Cc1ccccc1)C(=O)[C@H](CCCNC(=N)N)NS(=O)(=O)c1cccc2c(N(C)C)cccc12` [Sample 52, N^2 -dansyl-N-methyl-N-benzyl-L-argininamide], which IC (2-fold clotting time) (thrombin) is on record?
The IC (2-fold clotting time) was 7 µM.

Which IC (2-fold clotting time) (thrombin) does the source give for `CN(C)c1cccc2c(S(=O)(=O)N[C@@H](CCCNC(=N)N)C(=O)N3CCCC3)cccc12` [Sample 53, 1-(N^2-dansyl-L-arginyl)pyrrolidine diacetate] here?
Its IC (2-fold clotting time) is 3.3 µM.

Which IC (2-fold clotting time) (thrombin) does the source give for `CCOC(=O)C1CCCN1C(=O)[C@H](CCCNC(=N)N)NS(=O)(=O)c1cccc2c(N(C)C)cccc12` (stereo partly drawn) [Sample 54] (Dansyl-Arg-[ξP]-OEt) here?
Its IC (2-fold clotting time) is 780 µM.

For `CN(C)c1cccc2c(S(=O)(=O)N[C@@H](CCCNC(=N)N)C(=O)N3CCCCC3)cccc12` [Sample 55, 1-(N^2-dansyl-L-arginyl)piperidine diacetate], which IC (2-fold clotting time) (thrombin) is on record?
The IC (2-fold clotting time) was 0.9 µM.

Which IC (2-fold clotting time) (thrombin) does the source give for `CC1CCCCN1C(=O)[C@H](CCCNC(=N)N)NS(=O)(=O)c1cccc2c(N(C)C)cccc12` (stereo partly drawn) [Sample 56, 2-methyl-1-(N^2-dansyl-L-arginyl)piperidine] here?
Its IC (2-fold clotting time) is 1.3 µM.

For `CC1CCCN(C(=O)[C@H](CCCNC(=N)N)NS(=O)(=O)c2cccc3c(N(C)C)cccc23)C1` (stereo partly drawn) [Sample 57, 3-methyl-1-(N^2-dansyl-L-arginyl)piperidine], which IC (2-fold clotting time) (thrombin) is on record?
Its IC (2-fold clotting time) is 6.5 µM.

Which IC (2-fold clotting time) (thrombin) does the source give for `CC1CCN(C(=O)[C@H](CCCNC(=N)N)NS(=O)(=O)c2cccc3c(N(C)C)cccc23)CC1` [Sample 58, 4-methyl-1-(N^2-dansyl-L-arginyl)piperidine diacetate] here?
The IC (2-fold clotting time) was 0.3 µM.

With `CCC1CCN(C(=O)[C@H](CCCNC(=N)N)NS(=O)(=O)c2cccc3c(N(C)C)cccc23)CC1` [Sample 59, 4-ethyl-1-(N^2-dansyl-L-arginyl) piperidine] as the compound, how does the IC (2-fold clotting time) (thrombin) read?
Its IC (2-fold clotting time) is 0.1 µM.

Which IC (2-fold clotting time) (thrombin) does the source give for `CCCC1CCN(C(=O)[C@H](CCCNC(=N)N)NS(=O)(=O)c2cccc3c(N(C)C)cccc23)CC1` [Sample 60, 4-(n-propyl)-1-(N^2-dansyl-L-arginyl)piperidine] here?
Its IC (2-fold clotting time) is 1 µM.

Which IC (2-fold clotting time) (thrombin) does the source give for `CC(C)C1CCN(C(=O)[C@H](CCCNC(=N)N)NS(=O)(=O)c2cccc3c(N(C)C)cccc23)CC1` [Sample 61, 4-(isopropyl)-1-(N^2-dansyl-L-arginyl)piperidine] here?
Its IC (2-fold clotting time) is 1 µM.

Which IC (2-fold clotting time) (thrombin) does the source give for `COC(=O)C1CCN(C(=O)[C@H](CCCNC(=N)N)NS(=O)(=O)c2cccc3c(N(C)C)cccc23)CC1` [Sample 62, 4-methoxycarbonyl-1-(N^2-dansyl-L-arginyl)piperidine] here?
The IC (2-fold clotting time) was 2.8 µM.

For `CN(C)c1cccc2c(S(=O)(=O)N[C@@H](CCCNC(=N)N)C(=O)N3CCC(C(N)=O)CC3)cccc12` [Sample 63], which IC (2-fold clotting time) (thrombin) is on record?
The IC (2-fold clotting time) was 100 µM.

Which IC (2-fold clotting time) (thrombin) does the source give for `CN(C)c1cccc2c(S(=O)(=O)N[C@@H](CCCNC(=N)N)C(=O)N3CCCCCC3)cccc12` [Sample 64, N^2 -dansyl-N,N-hexamethylene-L-argininamide] here?
Its IC (2-fold clotting time) is 0.9 µM.

For `CN(C)c1cccc2c(S(=O)(=O)N[C@@H](CCCNC(=N)N)C(=O)N3CCCCCCC3)cccc12` [Sample 65, N^2 -dansyl-N,N-heptamethylene-L-argininamide], which IC (2-fold clotting time) (thrombin) is on record?
Its IC (2-fold clotting time) is 1 µM.

For `CN(C)c1cccc2c(S(=O)(=O)N[C@@H](CCCNC(=N)N)C(=O)N3CCCCCCCC3)cccc12` [Sample 66, N^2 -dansyl-N,N-octamethylene-L-argininamide], which IC (2-fold clotting time) (thrombin) is on record?
Its IC (2-fold clotting time) is 2 µM.

Which IC (2-fold clotting time) (thrombin) does the source give for `CN(C)c1cccc2c(S(=O)(=O)N[C@@H](CCCNC(=N)N)C(=O)N3CCOCC3)cccc12` [Sample 67, 4-(N^2-dansyl-L-arginyl)morpholine] here?
Its IC (2-fold clotting time) is 1.5 µM.

For `CC1CN(C(=O)[C@H](CCCNC(=N)N)NS(=O)(=O)c2cccc3c(N(C)C)cccc23)CC(C)O1` (stereo partly drawn) [Sample 68], which IC (2-fold clotting time) (thrombin) is on record?
Its IC (2-fold clotting time) is 20 µM.

With `CN(C)c1cccc2c(S(=O)(=O)N[C@@H](CCCNC(=N)N)C(=O)N3Cc4ccccc4C3)cccc12` [Sample 70, 2-(N^2-dansyl-L-arginyl)isoindoline] as the compound, how does the IC (2-fold clotting time) (thrombin) read?
Its IC (2-fold clotting time) is 0.67 µM.

For `CN1CCN(C(=O)[C@H](CCCNC(=N)N)NS(=O)(=O)c2cccc3c(N(C)C)cccc23)CC1` [Sample 71, 4-methyl-1-(N^2-dansyl-L-arginyl)piperazine], which IC (2-fold clotting time) (thrombin) is on record?
The IC (2-fold clotting time) was 2 µM.

For `CN(C)c1cccc2c(S(=O)(=O)N[C@@H](CCCNC(=N)N)C(=O)N3CCCc4ccccc43)cccc12` [Sample 72, N^2-dansyl-N-(1,2,3,4-tetrahydro-1-quinolyl)argininamide], which IC (2-fold clotting time) (thrombin) is on record?
Its IC (2-fold clotting time) is 6.5 µM.
